Source: patent US8470810B2, “Heterocyclic compounds suitable for treating disorders that respond to modulation of the dopamine D3 receptor” (Abbott GmbH & Co. KG, priority 2004, dated 2013)

Assays:
[1] = target: T1, human dopamine D2L receptors (long isoform) (Homo sapiens, UniProt P14416); experiment: Dopamine D2L receptor binding, displacement of [125I] iodospiperone; conditions: membranes of HEK-293 cells stably expressing human D2L; 0.01 nM [125I] iodospiperone; 25° C., 60 minutes; read-out: Ki(D2)*
T1 construct: expressed in transfected cells
T1 sequence (P14416 whole entry, canonical isoform): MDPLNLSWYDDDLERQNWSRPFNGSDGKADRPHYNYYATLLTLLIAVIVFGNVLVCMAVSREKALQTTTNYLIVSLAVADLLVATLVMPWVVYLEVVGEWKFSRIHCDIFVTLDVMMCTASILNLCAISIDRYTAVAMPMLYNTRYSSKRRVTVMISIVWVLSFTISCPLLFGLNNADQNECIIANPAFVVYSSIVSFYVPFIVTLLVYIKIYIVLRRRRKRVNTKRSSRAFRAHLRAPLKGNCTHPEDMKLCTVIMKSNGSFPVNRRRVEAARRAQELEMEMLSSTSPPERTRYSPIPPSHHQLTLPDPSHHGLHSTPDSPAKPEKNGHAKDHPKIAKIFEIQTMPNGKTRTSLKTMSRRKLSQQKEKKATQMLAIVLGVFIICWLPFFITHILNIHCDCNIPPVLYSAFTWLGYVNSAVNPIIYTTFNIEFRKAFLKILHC
Method: (§1) The substance to be tested was either dissolved in methanol/Chremophor® (BASFAG) or in dimethyl sulfoxide and then diluted with water to the desired concentration.
(§2) Each assay mixture was run in triplicate.
The incubation buffer contained 50 mM tris, 120 mM NaCl, 5 mM KCl, 2 mM CaCl2, 2 mM MgCl2 and 0.1% bovine serum albumin. The buffer was adjusted to pH 7.4 with HCl.
(§3) After having been incubated at 25° C. for 60 minutes, the assay mixtures were filtered through a Whatman GF/B glass fiber filter under vacuum using a cell collecting device. The filters were transferred to scintillation viols using a filter transfer system. After 4 ml of Ultima Gold® (Packard) have been added, the samples were shaken for one hour and the radioactivity was then counted in a Beta-Counter (Packard, Tricarb 2000 or 2200CA). The cpm values were converted into dpm using a standard quench series and the program belonging to the instrument.
(§4) The inhibition curves were analyzed by means of iterative nonlinear regression analysis using the Statistical Analysis System (SAS) which is similar to the “LIGAND” program described by Munson and Rodbard.
(§5) The results of the receptro binding studies are expressed as receptor binding constants Ki(D2) and Ki(D3), respectively, as herein before described, and given in table 6.

[2] = target: T2, human dopamine D3 receptors (Homo sapiens, UniProt P35462); experiment: Dopamine D3 receptor binding, displacement of [125I]-iodosulpride; conditions: for Ki: membranes of HEK-293 cells stably expressing human D3, 0.1 nM [125I]-iodosulpride, 25° C., 60 minutes; for Ki(D2)*/Ki(D3)*: selectivity ratio of the receptor binding constants D2 over D3
T2 construct: expressed in transfected cells
T2 sequence (P35462 whole entry): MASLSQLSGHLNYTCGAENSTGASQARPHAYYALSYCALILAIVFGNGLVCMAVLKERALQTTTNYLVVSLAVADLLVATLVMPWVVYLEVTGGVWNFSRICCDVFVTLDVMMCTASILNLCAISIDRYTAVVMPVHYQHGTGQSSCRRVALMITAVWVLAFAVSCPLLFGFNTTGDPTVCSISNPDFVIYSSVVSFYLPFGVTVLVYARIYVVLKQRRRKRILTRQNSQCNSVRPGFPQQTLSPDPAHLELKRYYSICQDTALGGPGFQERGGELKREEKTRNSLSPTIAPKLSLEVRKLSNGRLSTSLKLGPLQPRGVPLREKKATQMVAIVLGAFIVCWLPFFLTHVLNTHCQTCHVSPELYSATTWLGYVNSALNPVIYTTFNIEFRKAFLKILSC
Method: as §1, §2
The incubation buffer contained 50 mM tris, 120 mM NaCl, 5 mM KCl, 2 mM CaCl2, 2 mM MgCl2 and 0.1% bovine serum albumin, 10 μM quinolone and 0.1% ascorbic acid (prepared fresh daily). The buffer was adjusted to pH 7.4 with HCl.
as §3, §4, §5

| SMILES | Ki [1] | Ki [2] | Ki(D2)*/Ki(D3)* [2] |
| --- | --- | --- | --- |
| CCCN1CC(c2ccc(NS(=O)(=O)c3ccc(CCCF)cc3)cc2)C1 [Example 57, 4-(3-Fluoro-propyl)-N-[4-(1-propyl-azetidin-3-yl)-phenyl]-benzenesulfonamide] | 880 nM | 7.18 nM | 123 |
| CCCN1CCC[C@@H](c2ccc(NS(=O)(=O)c3ccc(OC(F)(F)F)cc3)cc2)C1 [Example 133, N-[4-((S)-1-Propyl-piperidin-3-yl)-phenyl]-4-trifluoromethoxy-benzenesulfonamide] | 193 nM | 7.3 nM | 26 |
| CCCN1CC[C@@H](c2ccc(NS(=O)(=O)c3ccc(C4CCC4)cc3)cc2)C1 [Example 54, 4-Cyclobutyl-N-[4-((S)-1-propyl-pyrrolidin-3-yl)-phenyl]-benzenesulfonamide] | 8.73 nM | 0.32 nM | 27 |
| CCCN1CCC(c2ccc(NS(=O)(=O)c3ccc(C(C)C)cc3)cn2)C1 (single isomer, unassigned; (-)) [Example 131, (−)-N-[6-(1-Propyl-pyrrolidin-3-yl)-pyridin-3-yl]-4-isopropyl-benzene-sulfonamide] | 430 nM | 5.8 nM | 74 |
| CCCN1CC[C@@H](c2ccc(NS(=O)(=O)c3ccc(-n4cccn4)cc3)cc2)C1 [Example 69, N-[4-((S)-1-Propyl-pyrrolidin-3-yl)-phenyl]-4-pyrazol-1-yl-benzenesulfonamide] | 90.3 nM | 2.51 nM | 36 |
| O=S(=O)(Nc1ccc([C@@H]2CCNC2)cc1)c1ccc(OC(F)(F)F)cc1 [Example 102, N—((S)-4-Pyrrolidin-3-yl-phenyl)-4-trifluoromethoxy-benzenesulfonamide] | 2710 nM | 52 nM | 52 |
| CCCN1CC[C@@H](c2ccc(NS(=O)(=O)c3ccc(N4CCC4)cc3)cc2)C1 [Example 75, 4-Azetidin-1-yl-N-[4-((S)-1-propyl-pyrrolidin-3-yl)-phenyl]-benzenesulfonamide] | 12.2 nM | 0.63 nM | 19 |
| CCCN1CC[C@@H](c2ccc(NS(=O)(=O)c3ccc(-c4ccno4)s3)cc2)C1 [Example 80, 5-Isoxazol-5-yl-thiophene-2-sulfonic acid [4-((S)-1-propyl-pyrrolidin-3-yl)-phenyl]-amide] | 1100 nM | 37.6 nM | 29 |
| CC(C)c1ccc(S(=O)(=O)Nc2ccc([C@@H]3CCNC3)cc2)cc1 [Example 18, 4-Isopropyl-N-[4-((S)-pyrrolidin-3-yl)-phenyl]-benzenesulfonamide] | 90 nM | 2.3 nM | 39 |
| CCCN1CC[C@@H](c2ccc(NS(=O)(=O)c3ccc(-c4csnn4)cc3)cc2)C1 [Example 65, N-[4-((S)-1-Propyl-pyrrolidin-3-yl)-phenyl]-4-[1,2,3]thiadiazol-4-yl-benzenesulfonamide] | 197 nM | 6.79 nM | 29 |
| CCCN1CC[C@@H](c2ccc(NS(=O)(=O)c3ccc(-c4ccco4)cc3)cc2)C1 [Example 73, 4-Furan-2-yl-N-[4-((S)-1-propyl-pyrrolidin-3-yl)-phenyl]-benzenesulfonamide] | 6.73 nM | 0.61 nM | – |
| CCCN1CC[C@@H](c2ccc(NS(=O)(=O)c3ccc(-c4cnco4)cc3)cc2)C1 [Example 70, 4-Oxazol-5-yl-N-[4-((S)-1-propyl-pyrrolidin-3-yl)-phenyl]-benzenesulfonamide] | 37.3 nM | 0.84 nM | 44 |
| CCCN1CC[C@@H](c2ccc(NS(=O)(=O)c3ccc(-c4cnco4)s3)cc2)C1 [Example 82, 5-Oxazol-5-yl-thiophene-2-sulfonic acid [4-((S)-1-propyl-pyrrolidin-3-yl)-phenyl]-amide] | 437 nM | 5.59 nM | 78 |
| CCCN1CC[C@@H](c2ccc(NS(=O)(=O)c3cc4ccccc4o3)cc2)C1 [Example 79, Benzofuran-2-sulfonic acid [4-((S)-1-propyl-pyrrolidin-3-yl)-phenyl]-amide] | 1110 nM | 13.5 nM | 82 |
| CCCN1CCC(c2ccc(NS(=O)(=O)c3ccc(C(C)C)cc3)cc2F)C1.Cl (stereo not shown) [Example 130, N-[3-Fluoro-4-(1-propyl-pyrrolidin-3-yl)-phenyl]-4-isopropyl-benzenesulfonamide, hydrochloride] | 8.5 nM | 0.52 nM | 16 |
| CCCN1CC(c2ccc(NS(=O)(=O)c3ccc(Br)cc3)cc2)C1 [Example 58, 4-Bromo-N-[4-(1-propyl-azetidin-3-yl)-phenyl]-benzenesulfonamide] | 2940 nM | 39.8 nM | – |

Continued, values first:

| Ki [1] | Ki [2] | Ki(D2)*/Ki(D3)* [2] | SMILES |
| --- | --- | --- | --- |
| 16.2 nM | 0.95 nM | 17 | CCN1CC[C@@H](c2ccc(NS(=O)(=O)c3ccc(C(C)C)cc3)cc2)C1 [Example 84, 4-Isopropyl-N-[4-((S)-1-ethyl-pyrrolidin-3-yl)-phenyl]-benzenesulfonamide] |
| 46.6 nM | 1.07 nM | 44 | CCCN1CC[C@@H](c2ccc(NS(=O)(=O)c3ccc(OC(C)C)cc3)cc2)C1.Cl [Example 23, 4-Isopropoxy-N-[4-((S)-1-propyl-pyrrolidin-3-yl)-phenyl]-benzenesulfonamide hydrochloride] |
| 142 nM | 3 nM | 47 | CCCN1CC[C@@H](c2ccc(NS(=O)(=O)c3ccc(SC(F)(F)F)cc3)cc2)C1 [Example 68, N-[4-((S)-1-Propyl-pyrrolidin-3-yl)-phenyl]-4-trifluoromethylsulfanyl-benzenesulfonamide] |
| 6.3 nM | 0.29 nM | 21 | CC(C)c1ccc(S(=O)(=O)Nc2ccc([C@@H]3CCN(CCCF)C3)cc2)cc1 [Example 38, 4-Isopropyl-N-[4-((S)-1-(3-fluoro-propyl)-pyrrolidin-3-yl)-phenyl]-benzenesulfonamide] |
| 129 nM | 2.6 nM | 49 | CCCN1CC[C@@H](c2ccc(NS(=O)(=O)c3ccc(OC(F)F)cc3)cc2)C1.Cl [Example 9, 4-Difluoromethoxy-N-[4-((S)-1-propyl-pyrrolidin-3-yl)-phenyl]-benzenesulfonamide hydrochloride] |
| 20.1 nM | 0.45 nM | 45 | CCCN1CC[C@@H](c2ccc(NS(=O)(=O)c3ccc(CC)cc3)cc2)C1.Cl [Example 6, 4-Ethyl-N-[4-((S)-1-propyl-pyrrolidin-3-yl)-phenyl]-benzenesulfonamide hydrochloride] |
| 344 nM | 2.1 nM | 164 | CCCN1CC(c2ccc(NS(=O)(=O)c3ccc(C(C)C(F)F)cc3)cc2)C1 (stereo not shown) [Example 64, 4-(2,2-Difluoro-1-methyl-ethyl)-N-[4-(1-propyl-azetidin-3-yl)-phenyl]-benzenesulfonamide] |
| 27.9 nM | 1.3 nM | 22 | CCCN1CC[C@@H](c2ccc(NS(=O)(=O)c3ccc(C(CF)CF)cc3)cc2)C1 [Example 95, 4-(2-Fluoro-1-fluoromethyl-ethyl)-N-[4-((S)-1-propyl-pyrrolidin-3-yl)-phenyl]-benzenesulfonamide] |
